Measurements taken from PubChem BioAssay (NCI).
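Dose response: 5 concentrations. Exposure: 48 h. Format: 96-well plates. Endpoint: linear interpolation; highest concentration if not reached. Definition used: TGI = concentration required for complete inhibition of growth.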

How the values were obtained:
Assay in all cases: inhibition of tumour cell growth, NCI panel, 48 h
786-0 renal = tested on: 786-0 renal
A498 renal = tested on: A498 renal
A549 NSCLC = tested on: A549 NSCLC
ACHN renal = tested on: ACHN renal
BT-549 breast = tested on: BT-549 breast
CCRF-CEM leukemia = tested on: CCRF-CEM leukemia
COLO 205 colon = tested on: COLO 205 colon
DU-145 prostate = tested on: DU-145 prostate
EKVX NSCLC = tested on: EKVX NSCLC
HCC-2998 colon = tested on: HCC-2998 colon
HCT-116 colon = tested on: HCT-116 colon
HCT-15 colon = tested on: HCT-15 colon
HL-60(TB) leukemia = tested on: HL-60(TB) leukemia
HOP-62 NSCLC = tested on: HOP-62 NSCLC
HS 578T breast = tested on: HS 578T breast
HT29 colon = tested on: HT29 colon
K-562 leukemia = tested on: K-562 leukemia
KM12 colon = tested on: KM12 colon
LOX IMVI melanoma = tested on: LOX IMVI melanoma
M14 melanoma = tested on: M14 melanoma
MALME-3M melanoma = tested on: MALME-3M melanoma
MCF7 breast = tested on: MCF7 breast
MDA-MB-231 breast = tested on: MDA-MB-231 breast
MDA-MB-435 = tested on: MDA-MB-435
MDA-N = tested on: MDA-N
MOLT-4 leukemia = tested on: MOLT-4 leukemia
NCI-H226 lung = tested on: NCI-H226 lung
NCI-H23 lung = tested on: NCI-H23 lung
NCI-H460 lung = tested on: NCI-H460 lung
NCI-H522 lung = tested on: NCI-H522 lung
NCI/ADR-RES ovarian = tested on: NCI/ADR-RES ovarian
OVCAR-4 ovarian = tested on: OVCAR-4 ovarian
OVCAR-5 ovarian = tested on: OVCAR-5 ovarian
OVCAR-8 ovarian = tested on: OVCAR-8 ovarian
PC-3 prostate = tested on: PC-3 prostate
RPMI-8226 leukemia = tested on: RPMI-8226 leukemia
SF-268 CNS = tested on: SF-268 CNS
SF-295 CNS = tested on: SF-295 CNS
SF-539 CNS = tested on: SF-539 CNS
SK-MEL-2 melanoma = tested on: SK-MEL-2 melanoma
SK-MEL-28 melanoma = tested on: SK-MEL-28 melanoma
SN12C renal = tested on: SN12C renal
SNB-19 CNS = tested on: SNB-19 CNS
SNB-75 CNS = tested on: SNB-75 CNS
SR leukemia = tested on: SR leukemia
SW-620 colon = tested on: SW-620 colon
T-47D breast = tested on: T-47D breast
TK-10 renal = tested on: TK-10 renal
U251 CNS = tested on: U251 CNS
UACC-257 melanoma = tested on: UACC-257 melanoma
UO-31 renal = tested on: UO-31 renal
CAKI-1 renal = tested on: CAKI-1 renal
HOP-92 NSCLC = tested on: HOP-92 NSCLC
IGROV1 ovarian = tested on: IGROV1 ovarian
OVCAR-3 ovarian = tested on: OVCAR-3 ovarian
SK-MEL-5 melanoma = tested on: SK-MEL-5 melanoma
UACC-62 melanoma = tested on: UACC-62 melanoma

CC(=O)Oc1ccc(-c2cc3ccccc3oc2=O)cc1OC(C)=O
TGI (786-0 renal): > 100 µM
TGI (A498 renal): > 100 µM
TGI (A549 NSCLC): 94.7 µM
TGI (ACHN renal): > 100 µM
TGI (BT-549 breast): > 100 µM
TGI (CCRF-CEM leukemia): > 100 µM
TGI (COLO 205 colon): > 100 µM
TGI (DU-145 prostate): > 100 µM
TGI (EKVX NSCLC): > 100 µM
TGI (HCC-2998 colon): 59.3 µM
TGI (HCT-116 colon): > 100 µM
TGI (HCT-15 colon): > 100 µM
TGI (HL-60(TB) leukemia): 7.48 µM
TGI (HOP-62 NSCLC): > 100 µM
TGI (HS 578T breast): > 100 µM
TGI (HT29 colon): > 100 µM
TGI (K-562 leukemia): > 100 µM
TGI (KM12 colon): 33.2 µM
TGI (LOX IMVI melanoma): > 100 µM
TGI (M14 melanoma): > 100 µM
TGI (MALME-3M melanoma): > 100 µM
TGI (MCF7 breast): > 100 µM
TGI (MDA-MB-231 breast): > 100 µM
TGI (MDA-MB-435): > 100 µM
TGI (MDA-N): > 100 µM
TGI (MOLT-4 leukemia): > 100 µM
TGI (NCI-H226 lung): > 100 µM
TGI (NCI-H23 lung): > 100 µM
TGI (NCI-H460 lung): > 100 µM
TGI (NCI-H522 lung): > 100 µM
TGI (NCI/ADR-RES ovarian): > 100 µM
TGI (OVCAR-4 ovarian): > 100 µM
TGI (OVCAR-5 ovarian): > 100 µM
TGI (OVCAR-8 ovarian): > 100 µM
TGI (PC-3 prostate): > 100 µM
TGI (RPMI-8226 leukemia): > 100 µM
TGI (SF-268 CNS): > 100 µM
TGI (SF-295 CNS): 67.9 µM
TGI (SF-539 CNS): > 100 µM
TGI (SK-MEL-2 melanoma): > 100 µM
TGI (SK-MEL-28 melanoma): > 100 µM
TGI (SN12C renal): > 100 µM
TGI (SNB-19 CNS): > 100 µM
TGI (SNB-75 CNS): > 100 µM
TGI (SR leukemia): > 100 µM
TGI (SW-620 colon): > 100 µM
TGI (T-47D breast): > 100 µM
TGI (TK-10 renal): > 100 µM
TGI (U251 CNS): > 100 µM
TGI (UACC-257 melanoma): > 100 µM
TGI (UO-31 renal): > 100 µM

CC1=CC(C)C(O)C(C)/C=C/C(O)C/C=C(/C)C(=O)CC(O)C(C)\C=C/C=C/C=C\C(=O)NC2=C(O)c3cc(C)c(O)c(c3C(=O)C2=O)C1=O (centres undefined)
TGI (786-0 renal): > 100 µM
TGI (A549 NSCLC): > 100 µM
TGI (ACHN renal): > 100 µM
TGI (BT-549 breast): > 100 µM
TGI (CAKI-1 renal): > 100 µM
TGI (CCRF-CEM leukemia): > 100 µM
TGI (COLO 205 colon): > 100 µM
TGI (DU-145 prostate): > 100 µM
TGI (EKVX NSCLC): > 100 µM
TGI (HCC-2998 colon): > 100 µM
TGI (HCT-116 colon): > 100 µM
TGI (HCT-15 colon): > 100 µM
TGI (HL-60(TB) leukemia): > 100 µM
TGI (HOP-62 NSCLC): > 100 µM
TGI (HOP-92 NSCLC): > 100 µM
TGI (HS 578T breast): > 100 µM
TGI (HT29 colon): > 100 µM
TGI (IGROV1 ovarian): > 100 µM
TGI (KM12 colon): > 100 µM
TGI (LOX IMVI melanoma): > 100 µM
TGI (M14 melanoma): > 100 µM
TGI (MCF7 breast): 65 µM
TGI (MDA-MB-231 breast): > 100 µM
TGI (MDA-MB-435): > 100 µM
TGI (MDA-N): > 100 µM
TGI (MOLT-4 leukemia): > 100 µM
TGI (NCI-H23 lung): > 100 µM
TGI (NCI-H460 lung): > 100 µM
TGI (NCI-H522 lung): > 100 µM
TGI (NCI/ADR-RES ovarian): > 100 µM
TGI (OVCAR-3 ovarian): > 100 µM
TGI (OVCAR-4 ovarian): > 100 µM
TGI (OVCAR-5 ovarian): > 100 µM
TGI (OVCAR-8 ovarian): > 100 µM
TGI (PC-3 prostate): > 100 µM
TGI (RPMI-8226 leukemia): > 100 µM
TGI (SF-268 CNS): > 100 µM
TGI (SF-295 CNS): > 100 µM
TGI (SF-539 CNS): > 100 µM
TGI (SK-MEL-2 melanoma): > 100 µM
TGI (SK-MEL-28 melanoma): > 100 µM
TGI (SK-MEL-5 melanoma): > 100 µM
TGI (SN12C renal): > 100 µM
TGI (SNB-19 CNS): > 100 µM
TGI (SNB-75 CNS): > 100 µM
TGI (SR leukemia): > 100 µM
TGI (SW-620 colon): > 100 µM
TGI (T-47D breast): > 100 µM
TGI (TK-10 renal): > 100 µM
TGI (U251 CNS): > 100 µM
TGI (UACC-257 melanoma): > 100 µM
TGI (UACC-62 melanoma): > 100 µM
TGI (UO-31 renal): > 100 µM
